Experimental data reported in patent publication US6858402B2 (The Regents of the University of California, priority 1996, dated 2005).

Columns and labels:
[1] = test system: THP-1 cells; experiment: Induction of TRRE by PMA stimulation, TRRE assay of supernatant; assay type: cell-based, human
Method: THP-1 cells growing in logarithmic phase were collected and resuspended to 1×10^6 cells/ml of RPMI-1640 supplemented with 1% FCS and incubated with 10^−6 M PMA for 30 min in 5% CO2 at 37° C. The cells were collected and washed once with serum-free medium to remove PMA and resuspended in the same volume of RPMI-1640 with 1% FCS. After 2 hours incubation in 5% CO2 at 37° C., the cell suspension was collected, centrifuged, and the cell-free supernatant was collected as the TRRE-containing sample.
Briefly, C75R and COS-1 cells were seeded at 2.5×10^5 cells/ml/well in a 24-well culture plate and incubated in 5% CO2 at 37° C. for 12 to 16 hours. […] Simultaneously, C75R was incubated with 300 μl of fresh medium or buffer. At the end of the incubation period, the samples from each well were collected and the levels of soluble p75 TNF-R were measured by ELISA.
(§1) C75R cells and COS-1 cells were seeded into 24-well culture plates at a density of 2.5×10^5 cells/ml/well and incubated overnight (for 12 to 16 hours) in 5% CO2 at 37° C. […] (corresponding to A and C mentioned below, respectively). Simultaneously, C75R cells in 24-well plates were also incubated with 300 μl of fresh medium or buffer (corresponding to B mentioned below). The supernatants were collected, centrifuged, and then assayed for the concentration of soluble p75 TNF-R by ELISA as described above.
(§2) The stimulated cells were washed with serum-free medium and resuspended in the same volume of PMA-free medium with 1% FCS for 2 more hours in 5% CO2 at 37° C.
(§3) Suspension cell lines including THP-1, U-937, HL-60, Raji and K-562 at a density of 1×10^6 cells/ml were stimulated in RPMI-1640/1% FCS-with 10^−6 M PMA for 30 min in 5% CO2 at 37° C. After pelleting the cells and discarding the supernatants, the cells were washed once with serum-free medium and then incubated for 2 more hours at the same density of 1×10^6 cells/ml in PMA-free RPMI-1640/1% FCS. Adherent cell lines including ME-180 and MRC-5 were seeded in 100 mm cell culture plates with RPMI-1640/10% FCS-at a density of 6×10^6 cells/10 ml/plate in 5% CO2 at 37° C. overnight. After discarding the medium from the 100 mm plates, these adherent cells were stimulated in 6 ml of RPMI-1640/1% FCS with 10^−6 M PMA (at an approximate density of 1×10^6 cells/ml) for 30 min in 5% CO2 at 37° C. Following washing of the plates with serum-free medium 3 times, the cells were incubated for 2 more hours in 6 ml of PMA-free RPMI-1640/1% FCS.
THP-1 cells were stimulated with 10−6 M PMA in RPMI-1640 with 1% FCS for 30 min.
THP-1 cells at a density of 1×10^6 cells/ml were stimulated in 1% FCS-contained RPMI-1640 with 10^−6 M PMA for 30 min at 37° C. in 5% CO2. After washing the cells with serum-free medium to remove PMA, the cells were incubated in the same volume of 1% FCS-contained RPMI-1640 without PMA for 2 hours at 37° C. in 5% CO2. Then the cells were centrifuged down and the supernatant was collected for TRRE assay. These pelleted cells were again resuspended in 1% FCS-contained RPMI-1640 with or without 10^−6 M PMA and incubated for 30 min at 37° C. in 5% CO2. After washing the cells with serum-free medium to remove PMA, the cells, stimulated or non-stimulated by PMA, were incubated in the same volume of 1% FCS-contained RPMI-1640 without PMA for 2 and 4 hours each at 37° C. in 5% CO2.

[2] = test system: HL-60; experiment: as above; assay type: cell-based, human; settings: HL-60, 10^−6 M PMA
Description: (§4) THP-1 (a human monocytic leukemia cell line), U-937 (a human histiocytic lymphoma cell line), HL-60 (a human promyelocytic leukemia cell line), Raji (a human Burkitt lymphoma cell line) and K-562 (a human myelogenous leukemia cell line), which grow in suspension, and ME-180 (a human epidermoid carcinoma cell line) and MRC-5 (a human lung fibroblast cell line), which grow adherently, were purchased from American Type Culture Collection (Rockville, Md.). These cell lines were passed twice a week in RPMI-1640/10% heat-inactivated FCS.
as §3

[3] = test system: K-562; experiment: as above; assay type: cell-based, human; settings: K-562, 10^−6 M PMA
Description: as §4, §3

[4] = test system: Raji; experiment: as above; assay type: cell-based, human; settings: 10^−6 M PMA
Description: as §4, §3

[5] = test system: ME-180; experiment: as above; assay type: cell-based, human; settings: ME-180, 10^−6 M PMA
Description: as §4, §3

[6] = test system: MRC-5; experiment: as above; assay type: cell-based, human; settings: MRC-5, 10^−6 M PMA
Description: as §4, §3

[7] = test system: U-937; experiment: as above; assay type: cell-based, human; settings: U-937, 10^−6 M PMA
Description: as §4, §3

[8] = test system: THP-1 cells; experiment: as above; assay type: cell-based, human; settings: for TRRE Activity (U/ml): THP-1, 10^−6 M PMA 30 min
[9] = test system: human peripheral blood monocytes; experiment: as above; assay type: cell-based; settings: for TRRE Activity (U): Human Monocyte
Method: as §1
Mononuclear cells were harvested at the interface of an isotonic Ficoll cushion (specific gravity, 1.05) from a Leukopac obtained from normal healthy volunteers according to the manufacturer's instructions (Sigma). Then monocytes were isolated by counterflow centrifugal elutriation with a Beckman JE-5.0 system. On average, the purity of the monocyte fraction was over 95%, as judged by morphologic examination and nonspecific esterase staining, and viability was over 98% as assessed by the trypan blue dye exclusion test.
as §2

[10] = test system: soluble p75 and p55 TNF-R; settings: Crowe et al. (1995); Mullberg et al. (1995); cited from earlier work
[11] = Bauditz et al. (1997); cited from earlier work
[12] = test system: TNF; settings: Shohami et al. (1997); cited from earlier work
[13] = test system: TNF; settings: in vitro and in vivo; Solorzano et al. (1997); cited from earlier work

CCCCCCCCCCCCCC(=O)O[C@@H]1[C@@H](C)[C@@]2(O)[C@@H](C=C(CO)C[C@]3(O)C(=O)C(C)=C[C@@H]23)[C@@H]2C(C)(C)[C@]12OC(C)=O [PMA, phorbol 12-myristate 13-acetate]
TRRE produced (FIG. 10A) ([1]; PMA-stimulated THP-1, 1% FCS): 2,096 U/ml
TRRE (U/ml/10^6 cells) ([1]; THP-1, 10^−6 M PMA): 2,884 U/ml/10^6 cells
TRRE release ([1]; THP-1, 10^−6 M PMA 30 min, then 2 hours PMA-free): 1,304 U/ml
TRRE Activity (U/ml) ([1]; THP-1, 10^−6 M PMA 30 min, then 2 hours PMA-free with 1% FCS): 1,356 U/ml
TRRE Activity (U) ([1]; THP-1, PMA 10^−6 M): 1,304 U
TRRE released ([1]; THP-1, after first PMA stimulation, no second PMA, 2 hours and 4 hours): no TRRE activity
TRRE released ([1]; THP-1, first stimulation of PMA): 951 U/ml
TRRE released ([1]; THP-1, second PMA stimulation 30 min, additional 2 hours PMA-free): 1,245 U/ml
TRRE released ([1]; THP-1, second PMA stimulation 30 min, additional 4 hours PMA-free): 1,044 U/ml
TRRE (U/ml/10^6 cells) [2]: 3,144 U/ml/10^6 cells
TRRE (U/ml/10^6 cells) [3]: 3,356 U/ml/10^6 cells
TRRE (U/ml/10^6 cells) [4]: 2,390 U/ml/10^6 cells
TRRE (U/ml/10^6 cells) [5]: 1,694 U/ml/10^6 cells
TRRE (U/ml/10^6 cells) [6]: 1,477 U/ml/10^6 cells
TRRE (U/ml/10^6 cells) [7]: 3,288 U/ml/10^6 cells
TRRE produced (FIG. 10A) ([8]; PMA-stimulated THP-1, 0% FCS): 217 U/ml
TRRE Activity (U/ml) ([8]; then 2 hours PMA-free with 0% FCS): 224 U/ml
TRRE Activity (U/ml) ([8]; then 2 hours PMA-free with 10% FCS): 2,275 U/ml
TRRE induction ([8]; THP-1, 10^−8 M PMA): did not induce any TRRE
TRRE Activity (U) ([8]; THP-1, PMA 10^−7 M): 368 U
TRRE Activity (U) ([9]; PMA 10^−6 M): 883 U
TRRE Activity (U) ([9]; PMA 10^−7 M): 51 U
TRRE release ([9]; human monocytes, 10^−6 M PMA 30 min, then 2 hours PMA-free): 883 U/ml
TRRE induction ([9]; monocytes, 10^−8 M PMA): did not induce any TRRE

TAPI
shedding of soluble p75 and p55 TNF-R [10]: blocks the shedding

CC(=O)CCCCn1c(=O)c2c(ncn2C)n(C)c1=O [oxpentifylline]
course of Crohn's disease [11]: did not alter the course

CCCCCCC(C)(C)c1cc(O)c2c(c1)OC(C)(C)[C@H]1CC=C(CO)C[C@H]21 [dexanabinol]
protection against TNF following traumatic brain injury [12]: provided protection

CNC(=O)[C@H](Cc1c[nH]c2ccccc12)NC(=O)[C@@H](CC(=O)NO)CC(C)C [GM-6001]
release of TNF [13]: prevents the release of TNF
